Data taken from ChEMBL document CHEMBL1649420, “Identifying chelators for metalloprotein inhibitors using a fragment-based approach” (J Med Chem, 2011).

Assays:
Details in all cases: at 1 mM
[1] = molecular target: T1, Lethal factor (Bacillus anthracis) (UniProt P15917)
T1 sequence (whole entry): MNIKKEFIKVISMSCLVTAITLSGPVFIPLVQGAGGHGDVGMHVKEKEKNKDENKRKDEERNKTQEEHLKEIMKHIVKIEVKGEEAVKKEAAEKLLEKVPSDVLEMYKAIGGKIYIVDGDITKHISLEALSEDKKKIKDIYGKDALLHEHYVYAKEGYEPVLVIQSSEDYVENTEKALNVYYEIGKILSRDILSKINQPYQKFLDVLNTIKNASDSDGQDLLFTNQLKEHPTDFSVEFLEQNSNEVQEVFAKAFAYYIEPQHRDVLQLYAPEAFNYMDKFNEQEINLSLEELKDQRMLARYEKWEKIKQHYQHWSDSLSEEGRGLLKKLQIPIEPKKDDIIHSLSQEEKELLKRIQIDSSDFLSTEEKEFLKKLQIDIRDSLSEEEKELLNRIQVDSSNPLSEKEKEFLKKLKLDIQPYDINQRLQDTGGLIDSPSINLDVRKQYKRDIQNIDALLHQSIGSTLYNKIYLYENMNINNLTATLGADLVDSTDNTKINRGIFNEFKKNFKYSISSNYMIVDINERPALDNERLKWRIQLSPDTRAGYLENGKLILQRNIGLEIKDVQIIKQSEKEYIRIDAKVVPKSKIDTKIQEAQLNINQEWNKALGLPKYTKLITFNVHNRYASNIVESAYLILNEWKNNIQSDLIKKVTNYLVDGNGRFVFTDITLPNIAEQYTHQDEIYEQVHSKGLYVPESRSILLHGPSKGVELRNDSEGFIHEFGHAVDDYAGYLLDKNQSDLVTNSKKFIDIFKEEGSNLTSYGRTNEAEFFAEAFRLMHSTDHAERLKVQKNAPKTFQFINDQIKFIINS

[2] = molecular target: T2, Interstitial collagenase (Homo sapiens) (UniProt P03956);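 further: recombinant human enzyme, with inhibition measured after 30 min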
T2 sequence (whole entry): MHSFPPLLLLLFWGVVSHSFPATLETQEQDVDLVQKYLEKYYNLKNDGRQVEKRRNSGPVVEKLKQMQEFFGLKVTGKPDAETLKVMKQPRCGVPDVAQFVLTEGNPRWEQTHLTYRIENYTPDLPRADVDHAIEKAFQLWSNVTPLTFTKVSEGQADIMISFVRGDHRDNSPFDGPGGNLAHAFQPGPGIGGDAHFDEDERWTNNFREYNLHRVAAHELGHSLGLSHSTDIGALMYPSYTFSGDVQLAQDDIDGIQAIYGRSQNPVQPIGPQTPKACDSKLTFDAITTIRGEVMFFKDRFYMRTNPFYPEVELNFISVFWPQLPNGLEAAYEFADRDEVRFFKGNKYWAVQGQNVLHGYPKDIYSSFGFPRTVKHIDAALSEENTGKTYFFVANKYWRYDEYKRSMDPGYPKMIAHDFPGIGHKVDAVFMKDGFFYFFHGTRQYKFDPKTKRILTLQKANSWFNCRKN

[3] = molecular target: 72 kDa type IV collagenase (Homo sapiens, UniProt P08253);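 further: recombinant human enzyme, inhibition read after a 30 min incubation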
Sequence of 72 kDa type IV collagenase (P08253 110-660 limits assumed): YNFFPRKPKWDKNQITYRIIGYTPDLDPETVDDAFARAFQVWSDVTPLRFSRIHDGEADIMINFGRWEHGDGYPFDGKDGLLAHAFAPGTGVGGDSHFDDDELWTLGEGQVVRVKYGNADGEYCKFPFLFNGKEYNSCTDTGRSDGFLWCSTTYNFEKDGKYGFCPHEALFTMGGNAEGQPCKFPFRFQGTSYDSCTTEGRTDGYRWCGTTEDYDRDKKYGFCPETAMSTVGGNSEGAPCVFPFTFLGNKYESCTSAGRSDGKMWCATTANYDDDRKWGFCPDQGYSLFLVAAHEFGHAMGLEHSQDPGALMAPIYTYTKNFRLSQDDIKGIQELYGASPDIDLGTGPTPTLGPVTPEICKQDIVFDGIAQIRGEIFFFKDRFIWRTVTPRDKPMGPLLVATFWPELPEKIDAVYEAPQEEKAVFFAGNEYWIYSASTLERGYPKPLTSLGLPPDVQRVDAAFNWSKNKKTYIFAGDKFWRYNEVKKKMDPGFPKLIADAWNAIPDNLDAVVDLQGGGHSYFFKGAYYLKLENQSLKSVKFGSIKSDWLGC

[4] = molecular target: Stromelysin-1 (Homo sapiens) (UniProt P08254);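 further: recombinant enzyme, inhibition read after a 30 min incubation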
Sequence of Stromelysin-1 (Homo sapiens) (P08254 100-477 limits assumed): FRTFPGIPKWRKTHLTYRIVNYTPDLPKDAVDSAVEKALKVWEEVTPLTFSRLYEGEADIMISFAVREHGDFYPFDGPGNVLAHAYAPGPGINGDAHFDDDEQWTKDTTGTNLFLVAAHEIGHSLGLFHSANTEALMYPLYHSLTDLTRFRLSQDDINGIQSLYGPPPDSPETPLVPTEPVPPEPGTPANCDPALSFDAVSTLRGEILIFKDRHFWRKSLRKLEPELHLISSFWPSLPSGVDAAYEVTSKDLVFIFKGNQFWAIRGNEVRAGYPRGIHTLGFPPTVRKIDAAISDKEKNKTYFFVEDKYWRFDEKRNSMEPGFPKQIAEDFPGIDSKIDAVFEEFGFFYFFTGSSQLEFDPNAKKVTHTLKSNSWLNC

[5] = molecular target: Neutrophil collagenase (Homo sapiens) (UniProt P22894);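 further: recombinant human MMP8 enzyme, percent inhibition read after 30 min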
Sequence of Neutrophil collagenase (Homo sapiens) (P22894 101-467 limits assumed): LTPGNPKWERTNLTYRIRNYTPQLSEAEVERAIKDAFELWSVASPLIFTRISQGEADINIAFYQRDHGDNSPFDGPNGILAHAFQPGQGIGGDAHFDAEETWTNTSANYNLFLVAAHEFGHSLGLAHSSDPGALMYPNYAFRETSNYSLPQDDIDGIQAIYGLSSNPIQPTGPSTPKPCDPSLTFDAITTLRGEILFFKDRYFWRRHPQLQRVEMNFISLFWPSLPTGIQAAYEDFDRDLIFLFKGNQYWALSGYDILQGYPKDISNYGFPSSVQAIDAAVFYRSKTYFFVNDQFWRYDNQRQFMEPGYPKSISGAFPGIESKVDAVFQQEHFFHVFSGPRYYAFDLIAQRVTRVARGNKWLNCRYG

[6] = molecular target: Matrix metalloproteinase-9 (Homo sapiens) (UniProt P14780);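 further: recombinant human MMP9, activity read after 30 min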
Sequence of Matrix metalloproteinase-9 (Homo sapiens) (P14780 whole entry): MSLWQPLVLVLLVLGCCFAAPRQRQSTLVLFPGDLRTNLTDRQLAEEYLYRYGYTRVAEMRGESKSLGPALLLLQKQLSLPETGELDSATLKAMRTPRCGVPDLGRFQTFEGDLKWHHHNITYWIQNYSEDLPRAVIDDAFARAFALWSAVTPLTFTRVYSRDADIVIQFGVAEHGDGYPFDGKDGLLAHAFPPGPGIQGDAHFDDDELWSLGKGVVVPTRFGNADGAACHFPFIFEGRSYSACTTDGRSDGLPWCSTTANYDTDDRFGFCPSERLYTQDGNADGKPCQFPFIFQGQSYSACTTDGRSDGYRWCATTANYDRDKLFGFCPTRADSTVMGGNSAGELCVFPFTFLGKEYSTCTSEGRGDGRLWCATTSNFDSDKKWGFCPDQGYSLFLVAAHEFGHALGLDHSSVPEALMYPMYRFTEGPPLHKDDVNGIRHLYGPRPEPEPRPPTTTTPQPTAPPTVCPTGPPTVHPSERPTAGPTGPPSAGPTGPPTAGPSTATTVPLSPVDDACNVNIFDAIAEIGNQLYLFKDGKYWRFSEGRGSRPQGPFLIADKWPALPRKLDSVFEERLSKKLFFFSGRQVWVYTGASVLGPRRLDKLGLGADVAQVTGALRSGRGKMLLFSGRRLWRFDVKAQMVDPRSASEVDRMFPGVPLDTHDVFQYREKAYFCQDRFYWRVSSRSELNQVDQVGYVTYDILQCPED

[7] = molecular target: T3, Nitric oxide synthase, inducible (Mus musculus) (UniProt P29477);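 further: recombinant enzyme, activity read out colorimetrically after 40 min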
T3 sequence (whole entry): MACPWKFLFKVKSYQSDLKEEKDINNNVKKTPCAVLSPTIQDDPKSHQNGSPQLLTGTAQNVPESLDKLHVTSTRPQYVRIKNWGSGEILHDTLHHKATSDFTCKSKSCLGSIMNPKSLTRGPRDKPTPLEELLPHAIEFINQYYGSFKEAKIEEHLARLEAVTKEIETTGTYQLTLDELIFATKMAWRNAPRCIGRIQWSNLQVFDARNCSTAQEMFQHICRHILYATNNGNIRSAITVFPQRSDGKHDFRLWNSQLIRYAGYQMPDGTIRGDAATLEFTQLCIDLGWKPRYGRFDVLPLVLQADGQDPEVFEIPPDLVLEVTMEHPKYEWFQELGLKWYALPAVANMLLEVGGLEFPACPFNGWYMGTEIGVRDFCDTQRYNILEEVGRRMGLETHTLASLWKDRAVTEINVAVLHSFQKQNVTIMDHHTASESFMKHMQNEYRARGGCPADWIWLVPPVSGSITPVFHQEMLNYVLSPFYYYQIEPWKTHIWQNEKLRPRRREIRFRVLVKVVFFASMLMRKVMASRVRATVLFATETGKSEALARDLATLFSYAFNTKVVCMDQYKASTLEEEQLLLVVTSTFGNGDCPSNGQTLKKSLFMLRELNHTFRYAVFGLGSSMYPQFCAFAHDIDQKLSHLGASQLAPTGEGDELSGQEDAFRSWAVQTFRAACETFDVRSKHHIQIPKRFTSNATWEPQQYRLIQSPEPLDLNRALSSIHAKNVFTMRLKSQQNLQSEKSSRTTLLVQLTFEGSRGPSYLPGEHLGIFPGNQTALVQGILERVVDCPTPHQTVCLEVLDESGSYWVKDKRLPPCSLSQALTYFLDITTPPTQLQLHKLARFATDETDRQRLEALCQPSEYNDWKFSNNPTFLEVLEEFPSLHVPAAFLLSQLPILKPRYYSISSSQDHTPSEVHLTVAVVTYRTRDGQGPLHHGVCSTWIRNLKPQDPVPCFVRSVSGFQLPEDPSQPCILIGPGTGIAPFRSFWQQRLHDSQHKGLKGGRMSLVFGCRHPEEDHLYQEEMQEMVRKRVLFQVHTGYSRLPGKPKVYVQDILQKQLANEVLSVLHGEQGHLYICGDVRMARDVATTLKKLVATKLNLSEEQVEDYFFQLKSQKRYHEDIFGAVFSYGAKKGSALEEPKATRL

Row | SMILES | inhibition [1] | inhibition [2] | inhibition [3] | inhibition [4] | inhibition [5] | inhibition [6] | inhibition [7]
1 | O=C(O)c1ncccc1O | 43% | 55% | 58% | 56% | 56% | 19% | 46%
2 | O=c1occcc1O | 21% | 74% | 66% | 72% | 68% | 70% | 42%
3 | CCCCc1ccc(C(=O)O)nc1 | 29% | 58% | 43% | 80% | 47% | 18% | 10%
4 | Oc1ncccn1 | 28% | 100% | 24% | 49% | 100% | 51% | 6%
5 | O=C(O)c1cc(F)ccc1O | 16% | -7% | -2% | -2% | -1% | 21% | 1%
6 | C1CNCCNCCN1 | 59% | 105% | 100% | 48% | 104% | 100% | 0%
7 | O=C(O)c1ccccn1 | 49% | 3% | 25% | 99% | 30% | 0% | 6%
8 | CC(=O)C1CCCC1=O (stereo unspecified) | 6% | 38% | 20% | 4% | 37% | 25% | 29%
